Test results reported in publication PMC12926254, “Novel pyrazole carboxylate derivatives as lonazolac bioisosteres with selective COX-2 inhibition: design, synthesis and anti-inflammatory activity” (Molecular Diversity, 2025).
Marks after values point to notes of the source that are not given here.

Assays:
COX-2 = target: T1, COX-2 (Homo sapiens, UniProt P35354); assay: In vitro COX-2 inhibition (COX-2 Inhibitor Screening Kit-K547, Biovision); format: biochemical; settings: for IC50: mean of six values ± standard deviation
T1 construct: purchased Biovision K547
T1 sequence (P35354 18-604): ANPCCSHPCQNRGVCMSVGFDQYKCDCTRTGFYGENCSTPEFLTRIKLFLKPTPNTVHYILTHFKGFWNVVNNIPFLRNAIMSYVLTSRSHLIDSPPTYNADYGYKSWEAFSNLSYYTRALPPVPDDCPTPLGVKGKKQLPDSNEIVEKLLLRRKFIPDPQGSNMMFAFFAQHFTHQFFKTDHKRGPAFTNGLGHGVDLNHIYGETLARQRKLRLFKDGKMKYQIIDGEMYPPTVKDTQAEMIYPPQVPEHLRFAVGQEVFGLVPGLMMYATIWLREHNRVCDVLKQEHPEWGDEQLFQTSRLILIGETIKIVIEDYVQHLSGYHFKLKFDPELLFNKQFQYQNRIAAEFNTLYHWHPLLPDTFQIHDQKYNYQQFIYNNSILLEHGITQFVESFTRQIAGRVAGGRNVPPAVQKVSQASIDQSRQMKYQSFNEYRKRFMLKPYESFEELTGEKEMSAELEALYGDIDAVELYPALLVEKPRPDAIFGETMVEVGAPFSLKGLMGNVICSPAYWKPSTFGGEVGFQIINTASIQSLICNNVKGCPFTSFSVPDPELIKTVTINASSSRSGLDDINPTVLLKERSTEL
Description: The IC50 value of the tested compounds was determined.
COX-2 inhibitor Screening Protocol: Dissolve the tested compounds in DMSO. Use COX Assay Buffer to dilute the relevant test concentration by 10X before using. Place 10 µl of diluted test inhibitor or Assay Buffer in the specified wells instead of the sample screen (S) or enzyme control (EC; no inhibitor). […] Before using, combine 2 µl of COX Cofactor with 398 µl of COX Assay Buffer to dilute COX Cofactor 200 times. Blend thoroughly. Just before using, mix 5 µl of the provided arachidonic acid with 5 µl of NaOH to make the arachidonic acid solution. Combine quickly using a vortex. To dilute the arachidonic acid/NaOH solution 10 times, add 90 µl of water. There should be 80 µl of reaction mix in each well. Using a multi-channel pipette, add 10 µl of diluted arachidonic acid/NaOH solution into each well to initiate the reactions concurrently.

iNOS = assay: Inducible nitric oxide synthase (iNOS) inhibition in LPS-induced RAW 264.7 cells (ELISA); format: cell-based; settings: Mus musculus, RAW264.7
From the text: NO is produced from L-arginine by iNOS and is utilized in a variety of cell signaling processes. An inducible member of the NOS family, iNOS is increased during pro-inflammatory cytokine activity as a host-defense mechanism. A commercially available quantitative ELISA kit (ab253219 Mouse iNOS Simple Step ELISA® Kit) will be used to evaluate the iNOS enzyme activity of the substances in the cell lysate in accordance with the manufacturer’s instructions.

MTS cytotoxicity assay = format: cell-based; settings: mouse, RAW 264.7 macrophages (heading: LPS-induced), read-out: Cytotoxicity IC50 (LPS-induced RAW 264.7 cells)
Description: Using Dulbecco’s Modified Eagle Medium (DMEM, Biowest L0060) supplemented with 10% foetal bovine serum (FBS) (Biowest, S1810) and 1% anti-biotic and anti-mycotic (Biowest, L0010-100), the RAW264.7 macrophage cell line (ATCC ® TIB-71TM) was cultivated. The cells were then incubated at 37 °C with 5% CO2 until they were confluent, which should be between 70 and 80%. After two to three days, the growth media was regularly changed. Trypsin–EDTA was then used to wash and collect the cells (Biowest, L0931-500).
The MTS (3-(4,5-dimethylthiazol-2-yl)-5-(3-carboxymethoxy-phenyl)-2-(4-sulfophenyl)-2H-tetrazolium) test (Promega, ab197010) was used to determine cell viability. In short, a 96-well plate was seeded with 5 × 10^3 cells per well, and the cells were then incubated for 24 h at 37 °C and 5% CO2. The cells were then re-incubated for 24 h at 37 °C and 5% CO2 after the medium was discarded and replaced with 180 µl of fresh growth media and 20 µl of sample (1000 ug, 250 ug, 63 ug, 16 ug, and 4 ug µg/mL). 20 µl of MTS was then added to each well, and the mixture was incubated for three hours at 37 °C with 5% CO2. […] Control cells were those that received no treatment.

gastric mucosa = assay: Ulcerogenic liability (ulcer index); format: in vivo; settings: 50 mg/kg orally, three successive days, rats
Description: […]. […] Rats were divided into 7 groups and fasted for 18 h before drug administration. The control group received the vehicle (2.5% Tween 80). […] After 2 h, animals were fed. Rats were given the required dose orally for three successive days. After 2 h of the last dose, rats were sacrificed; the stomach of each rat was removed then opened along the greater curvature and rinsed with saline. In order to examine the stomach, it was stretched by pins on a corkboard. The gastric mucosa was carefully inspected for the occurrence of ulcers with the aid of an illuminated magnifying lens (l0x), then ulcer index was calculated according to the method described by Cho and Ogle. Lesions were counted and measured along the greater diameter using transparent ruler. Every five hemorrhagic spots were considered equivalent to 1 mm of ulcer. The ulcer index (mm) was calculated from the sum of the total length of ulcers and hemorrhagic spots in each stomach.

[1] = tested on: carrageenan-induced rat paw edema; assay: Carrageenan-induced rat paw edema assay; format: in vivo
TNF-α = TNF-α production in LPS-activated RAW 264.7 macrophages (ELISA); settings: Mus musculus, RAW264.7, read-out: TNF-α IC50

IC50 (COX-2) | IC50 (iNOS) | IC50 (TNF-α) | COX-2 S.I. (COX-2; COX-1 IC50/COX-2 IC50) | Structure (SMILES) | IC50 at 24 h (MTS cytotoxicity assay) | % incidence /10 (gastric mucosa) | Average no of ulcer (gastric mucosa) | Average severity (gastric mucosa) | % inhibition (edema) ([1]; 10 mg/kg) | % inhibition (edema) ([1]; 25 mg/kg)
0.103 ± 0.003 µM | 0.61 ± 0.13 µM | 1.04 ± 0.042 µM |  | CCOC(=O)COc1ccc(C2=NN(c3ccc(S(C)(=O)=O)cc3)C(c3ccc(Br)cc3)C2)cc1 (stereo not shown) [Compound 15 h, Ethyl 2-(4-(5-(4-bromophenyl)-1-(4-(methylsulfonyl)phenyl)-4,5-dihydro-1H-pyrazol-3-yl)phenoxy)acetate] | 179 ± 6.37 µM | 2 | 0.40 ± 0.006^b | 0.29 ± 0.009***^b | 19.49% | 37.98%
0.397 ± 0.013 µM | 0.41 ± 0.06 µM | 0.77 ± 0.025 µM | 28.56 | CCOC(=O)COc1ccc(C2=NN(c3ccc(S(C)(=O)=O)cc3)C(c3ccc(OC)cc3)C2)cc1 (stereo not shown) [Compound 15c, Ethyl 2-(4-(5-(4-methoxyphenyl)-1-(4-(methylsulfonyl)phenyl)-4,5-dihydro-1H-pyrazol-3-yl)phenoxy)acetate] | 301 ± 10.7 µM | 2 | 0.55 ± 0.012***^b | 0.17 ± 0.004***^b | 22.32% | 31.51%
0.221 ± 0.007 µM | 0.531 ± 0.05 µM | 1.2 ± 0.06 µM |  | CCOC(=O)COc1ccc(C2=NN(c3ccc(S(C)(=O)=O)cc3)C(c3cc(OC)c(OC)c(OC)c3)C2)cc1 (stereo not shown) [Compound 15d, Ethyl 2-(4-(1-(4-(methylsulfonyl)phenyl)-5-(3,4,5-trimethoxyphenyl)-4,5-dihydro-1H-pyrazol-3-yl)phenoxy)acetate] | 183 ± 6.52 µM | 2 | 0.47 ± 0.006^b | 0.51 ± 0.013^b | 29.52% | 36.61%
